# Laboratory results as given in patent EP4603105A1, “PHARMACEUTICAL COMPOSITION CONTAINING CYCLIC COMPOUND HAVING SELECTIVE KRAS INHIBITORY EFFECT AGAINST HRAS AND NRAS” (CHUGAI SEIYAKU KABUSHIKI KAISHA, priority 2022, dated 2024).
# Where a SMILES comes first, the peptide text is derived from it. Bridges are numbered along the chain shown (N, C = ends). [ ]: non-standard residue; d: D form. The star is where a group is joined. hPhe(3-Cl-4-CF3) = N[C@@H](CCc1ccc(C(F)(F)F)c(Cl)c1)C(=O)O; NPrPhe(4-CF3) = CCCN[C@@H](Cc1ccc(C(F)(F)F)cc1)C(=O)O; NMeGly(cPent) = CN[C@H](C(=O)O)C1CCCC1; NMeD = CN[C@@H](CC(=O)O)C(=O)O; NMeNva = CCC[C@H](NC)C(=O)O; Morpholide = C1CN(*)CCO1; NMeA = CN[C@@H](C)C(=O)O; Ac5c = NC1(C(=O)O)CCCC1; Aze = O=C(O)[C@@H]1CCN1; Sar = CNCC(=O)O
# Tests used:
# [1] = target: GDP-bound NRAS wild-type protein (Homo sapiens, UniProt P01111); assay: Binding to NRAS by surface plasmon resonance (SPR), KD and KD ratio to KRAS
# GDP-bound NRAS wild-type protein, sequence (P01111 whole entry): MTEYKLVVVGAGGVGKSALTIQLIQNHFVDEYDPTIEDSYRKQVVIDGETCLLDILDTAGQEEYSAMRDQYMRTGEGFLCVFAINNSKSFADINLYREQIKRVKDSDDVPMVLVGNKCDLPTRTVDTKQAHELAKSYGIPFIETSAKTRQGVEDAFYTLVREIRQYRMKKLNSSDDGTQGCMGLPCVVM
# Outline: (§1)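 Captured GDP-RAS (~100–300 RU) was exposed to increasing compound concentrations, 75 s per step, in running buffer with 10 µM GDP, 10 mM MgCl2 and 4% DMSO at pH 7.4.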
# HRAS wild-type protein = HRAS wild-type protein (Homo sapiens, UniProt P01112); assay: Binding to HRAS by surface plasmon resonance (SPR), KD and KD ratio to KRAS
# HRAS wild-type protein, sequence (P01112 whole entry): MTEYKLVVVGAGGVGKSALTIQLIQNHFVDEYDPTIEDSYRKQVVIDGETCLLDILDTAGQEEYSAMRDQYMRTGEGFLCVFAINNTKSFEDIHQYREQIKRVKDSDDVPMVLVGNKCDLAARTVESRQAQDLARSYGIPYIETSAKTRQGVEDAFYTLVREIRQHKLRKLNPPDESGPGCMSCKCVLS
# Outline: as §1
# [2] = test system: human lung cancer strain NCI-H441; format: cell-based
# Outline: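 Step one: dispense the test compound in serial DMSO dilutions. Step three: add the reagent and measure […].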
# [3] = ratio of the KD value with respect to GDP-bound NRAS wild-type protein to the KD value with respect to KRAS
# [4] = ratio of the KD value with respect to HRAS wild-type protein to the KD value with respect to KRAS
# [5] = ratio of KD for GDP-bound NRAS wild-type protein to KD for KRAS
# [6] = ratio of KD for HRAS wild-type protein to KD for KRAS
# [7] = ratio of KD value for GDP-bound NRAS wild-type protein to KD value for KRAS (SPR)
# [8] = ratio of KD value for HRAS wild-type protein to KD value for KRAS (SPR)
SMILES,"NRAS /KRAS [1, 3]",HRAS /KRAS (HRAS wild-type protein; [4]),IC50 [2],"NRAS /KRAS [1, 5]",HRAS /KRAS (HRAS wild-type protein; [6]),"NRAS /KRAS [1, 7]",HRAS /KRAS (HRAS wild-type protein; [8])
CCO[C@@H]1C[C@H]2C(=O)NC3(CC(C)(C)C3)C(=O)N(C)[C@@H](C(CC)CC)C(=O)N(C)[C@H](C(=O)N(C)C)CC(=O)N(C)[C@@H](CC3CCC3)C(=O)N[C@@H]([C@@H](C)CC)C(=O)N(C)CC(=O)N(C)[C@H]3C/C=C\CCN(C3=O)[C@@H](Cc3ccc(C(F)(F)F)cc3)C(=O)N(C)CC(=O)N[C@@H](CCc3ccc(C(F)(F)F)c(Cl)c3)C(=O)N2C1 [PP2138],A (a compound having 10 or more and less than 20 is denoted as A),A (a compound having 10 or more and less than 20 is denoted as A),15.7 nM,–,–,–,–
CCO[C@@H]1C[C@H]2C(=O)NC3(CCC3)C(=O)N(C)[C@@H](C3CCCC3)C(=O)N(C)[C@H](C(=O)N(C)C)CC(=O)N(C)[C@@H](CC)C(=O)N[C@@H]([C@@H](C)CC)C(=O)N(C)CC(=O)N(C)[C@H]3CCCCN(C3=O)[C@@H](Cc3ccc(C(F)(F)F)cc3)C(=O)N(C)CC(=O)N[C@@H](CCc3ccc(OC(F)F)c(F)c3)C(=O)N2C1 [PP0986],–,–,45.9 nM,C (A compound having a KD ratio of 0.1 or more and less than 3 is denoted as C),C (A compound having a KD ratio of 0.1 or more and less than 3 is denoted as C),–,–
CCC(CC)[C@H]1C(=O)N(C)[C@H](C(=O)N(C)C)CC(=O)N(C)[C@@H](COC)C(=O)N[C@@H]([C@@H](C)CC)C(=O)N(C)CC(=O)N(C)[C@H]2C/C=C\CCN(C2=O)[C@@H](Cc2ccc(C(F)(F)F)cc2)C(=O)N(C)CC(=O)N[C@@H](CCc2cc(F)c(C(F)(F)F)c(F)c2)C(=O)N2CC[C@H]2C(=O)NC2(CC(C)(C)C2)C(=O)N1C [PP2918],–,–,126 nM,AA (a compound having 20 or more is denoted as AA),A (a compound having 10 or more and less than 20 is denoted as A),–,–
CCC[C@H]1C(=O)N[C@@H]([C@@H](C)CC)C(=O)N(C)[C@@H](C)C(=O)N2CC[C@H]2C(=O)N(CCC)[C@@H](Cc2ccc(C(F)(F)F)cc2)C(=O)N(C)CC(=O)N[C@@H](CCc2ccc(C(F)(F)F)c(Cl)c2)C(=O)N2CCC[C@H]2C(=O)NC2(CCCC2)C(=O)N(C)[C@@H](C2CCCC2)C(=O)N(C)[C@H](C(=O)N2CCOCC2)CC(=O)N1C [PP0193] ([NMeNva]I[NMeA][Aze][NPrPhe(4-CF3)][Sar][hPhe(3-Cl-4-CF3)]P[Ac5c][NMeGly(cPent)][NMeD]-Morpholide; lactam N-11),–,–,1.4 nM,C (A compound having a KD ratio of 0.1 or more and less than 3 is denoted as C),C (A compound having a KD ratio of 0.1 or more and less than 3 is denoted as C),–,–
CCO[C@@H]1C[C@H]2C(=O)NC3(CC(C)(C)C3)C(=O)N(C)[C@@H](C(CC)CC)C(=O)N(C)[C@H](C(=O)N(C)C)CC(=O)N(C)[C@H]3CCC/C=C/c4ccc(cc4)C[C@@H](C(=O)N(C)CC(=O)N[C@@H](CCc4cc(F)c(C(F)(F)F)c(F)c4)C(=O)N2C1)N1CC/C=C\C[C@@H](C1=O)N(C)C(=O)CN(C)C(=O)[C@H]([C@@H](C)CC)NC3=O [PP2575],–,–,4.1 nM,A (a compound having 10 or more and less than 20 is denoted as A),A (a compound having 10 or more and less than 20 is denoted as A),–,–
CCCN(C)C(=O)[C@@H]1CC(=O)N(C)[C@@H](CCOC)C(=O)N[C@@H]([C@@H](C)CC)C(=O)N(C)CC(=O)N(C)[C@H]2C/C=C\CCN(C2=O)[C@@H](Cc2ccc(C(F)(F)F)cc2)C(=O)N(C)CC(=O)N[C@@H](CCc2ccc(C(F)(F)F)c(OC)c2)C(=O)N2C[C@H](OCC)C[C@H]2C(=O)NC2(CC(C)(C)C2)C(=O)N(C)[C@@H](C2CCCC2)C(=O)N1C [PP1975],A (a compound having 10 or more and less than 20 is denoted as A),A (a compound having 10 or more and less than 20 is denoted as A),13.4 nM,–,–,–,–
CCCN(C)C(=O)[C@@H]1CC(=O)N(C)[C@@H](C(C)C)C(=O)N[C@@H]([C@@H](C)CC)C(=O)N(C)CC(=O)N(C)[C@H]2C/C=C\CCN(C2=O)[C@@H](Cc2ccc(C(F)(F)F)cc2)C(=O)N(C)CC(=O)N[C@@H](CCc2ccc(C(F)(F)F)c(OC)c2)C(=O)N2C[C@@H](C)C[C@H]2C(=O)NC2(CCC2)C(=O)N(C)[C@@H](C2CCCC2)C(=O)N1C [PP2067],AA (a compound having 20 or more is denoted as AA),A (a compound having 10 or more and less than 20 is denoted as A),17.7 nM,–,–,–,–
CCC[C@H]1C(=O)N[C@@H]([C@@H](C)CC)C(=O)N(C2CC2)CC(=O)N(C)[C@H]2C/C=C\CCN(C2=O)[C@@H](Cc2ccc(C(F)(F)F)cc2)C(=O)N(C)CC(=O)N[C@@H](CCc2cc(F)c(C(F)(F)F)c(F)c2)C(=O)N2C[C@H](OCC)C[C@H]2C(=O)NC2(CC(C)(C)C2)C(=O)N(C)[C@@H](C2CCCC2)C(=O)N(C)[C@H](C(=O)N(C)C)CC(=O)N1C [PP2101],A (a compound having 10 or more and less than 20 is denoted as A),B (a compound having 3 or more and less than 10 is denoted as B),16.6 nM,–,–,–,–
CCC[C@H]1C(=O)N[C@@H]([C@@H](C)CC)C(=O)N(C)CC(=O)N(C)[C@H]2C/C=C\CCN(C2=O)[C@@H](Cc2ccc(C)cc2)C(=O)N(C)CC(=O)N[C@@H](CCc2ccc(C(F)(F)F)c(Cl)c2)C(=O)N2C[C@@H](C)C[C@H]2C(=O)NC2(CC(C)(C)C2)C(=O)N(C)[C@@H](C2CCCC2)C(=O)N(C)[C@H](C(=O)N(C)CC)CC(=O)N1C [PP1893],–,–,18.5 nM,–,–,A (a compound having 10 or more and less than 20 is denoted as A),B (a compound having 3 or more and less than 10 is denoted as B)
CCO[C@@H]1C[C@H]2C(=O)NC3(CC(C)(C)C3)C(=O)N(C)[C@@H](C(CC)CC)C(=O)N(C)[C@H](C(=O)N(C)C)CC(=O)N(C)[C@H]3CCCCCc4ccc(cc4)C[C@@H](C(=O)N(C)CC(=O)N[C@@H](CCc4ccc(C(F)(F)F)c(OC)c4)C(=O)N2C1)N1CC/C=C\C[C@@H](C1=O)N(C)C(=O)CN(C)C(=O)[C@H]([C@@H](C)CC)NC3=O [PP3035],–,–,4.2 nM,AA (a compound having 20 or more is denoted as AA),A (a compound having 10 or more and less than 20 is denoted as A),–,–
CCC[C@H]1C(=O)N[C@@H]([C@@H](C)CC)C(=O)N(C)CC(=O)N(C)[C@H]2C/C=C\CCN(C2=O)[C@@H](Cc2ccc(C)cc2)C(=O)N(C)CC(=O)N[C@@H](CCc2ccc(Cl)c(C(F)(F)F)c2)C(=O)N2C[C@H](OCC)C[C@H]2C(=O)NC2(CC(C)(C)C2)C(=O)N(C)[C@@H](C(CC)CC)C(=O)N(C)[C@H](C(=O)N(C)C)CC(=O)N1C [PP2787],–,–,22.1 nM,AA (a compound having 20 or more is denoted as AA),A (a compound having 10 or more and less than 20 is denoted as A),–,–
CCO[C@@H]1C[C@H]2C(=O)NC3(CC(C)(C)C3)C(=O)N(C)[C@@H](C(CC)CC)C(=O)N(C)[C@H](C(=O)N(C)C)CC(=O)N(C)[C@@H](CC3CC3)C(=O)N[C@@H]([C@@H](C)CC)C(=O)N(C)CC(=O)N(C)[C@H]3C/C=C\CCN(C3=O)[C@@H](Cc3ccc(C(F)(F)F)cc3)C(=O)N(C)CC(=O)N[C@@H](CCc3ccc(C(F)(F)F)c(OC)c3)C(=O)N2C1 [PP2155],A (a compound having 10 or more and less than 20 is denoted as A),B (a compound having 3 or more and less than 10 is denoted as B),10.7 nM,–,–,–,–
CCO[C@@H]1C[C@H]2C(=O)NC3(CCC3)C(=O)N(C)[C@@H](CC(F)F)C(=O)N(C)[C@H](C(=O)N3CCOCC3)CC(=O)N(C)[C@@H](CC(C)C)C(=O)N[C@@H]([C@@H](C)CC)C(=O)N(C)CC(=O)N(C)[C@H]3CCCCN(C3=O)[C@@H](Cc3ccc(C(F)(F)F)cc3)C(=O)N(C)CC(=O)N[C@@H](CCc3cc(F)c(C(F)(F)F)c(F)c3)C(=O)N2C1 [PP0813],–,–,90.3 nM,C (A compound having a KD ratio of 0.1 or more and less than 3 is denoted as C),B (a compound having 3 or more and less than 10 is denoted as B),–,–
CCO[C@@H]1C[C@H]2C(=O)NC3(CC(C)(C)C3)C(=O)N(C)[C@@H](C3CCCC3)C(=O)N(C)[C@H](C(=O)N(C)CC)CC(=O)N(C)[C@@H](CC)C(=O)N[C@@H]([C@@H](C)CC)C(=O)N(C)CC(=O)N(C)[C@H]3C/C=C\CCN(C3=O)[C@@H](Cc3ccc(C)cc3)C(=O)N(C)CC(=O)N[C@@H](CCc3ccc(C(F)(F)F)c(Cl)c3)C(=O)N2C1 [PP1880],–,–,15.6 nM,–,–,A (a compound having 10 or more and less than 20 is denoted as A),B (a compound having 3 or more and less than 10 is denoted as B)
C#CC[C@H]1C(=O)N[C@@H]([C@@H](C)CC)C(=O)N(C)CC(=O)N(C)[C@H]2C/C=C\CCN(C2=O)[C@@H](Cc2ccc(C(F)(F)F)cc2)C(=O)N(C)CC(=O)N[C@@H](CCc2ccc(C(F)(F)F)c(OC)c2)C(=O)N2CC[C@H]2C(=O)NC2(CCC2)C(=O)N(C)[C@@H](C2CCCC2)C(=O)N(C)[C@H](C(=O)N(C)C)CC(=O)N1C [PP2911],–,–,64.8 nM,A (a compound having 10 or more and less than 20 is denoted as A),B (a compound having 3 or more and less than 10 is denoted as B),–,–
CC[C@H](C)[C@@H]1NC(=O)[C@H](CC2CCC2)N(C)C(=O)C[C@@H](C(=O)N(C)C)N(C)C(=O)[C@H](C2CCCC2)N(C)C(=O)C2(CC(C)(C)C2)NC(=O)[C@@H]2CC(F)(F)CN2C(=O)[C@H](CCc2cc(F)c(C(F)(F)F)c(F)c2)NC(=O)CN(C)C(=O)[C@H](Cc2ccc(C(F)(F)F)cc2)N2CC/C=C\C[C@@H](C2=O)N(C)C(=O)CN(C)C1=O [PP1716],–,–,3.8 nM,–,–,AA (a compound having 20 or more is denoted as AA),A (a compound having 10 or more and less than 20 is denoted as A)
